{"source": "paper PMC10151334", "about": "“Anti-proliferative potential and oxidative reactivity of thermo-oxidative degradation products of stigmasterol and stigmasteryl esters for human intestinal cells” (Scientific Reports, 2023)", "key": {"CCD 841 CoN cells [1]": {"tested_on": "CCD 841 CoN cells", "assay": "DNA synthesis, BrdU incorporation (Cell Proliferation ELISA)", "assay_type": "cell-based, human", "conditions": "48 h", "method": "CCD 841 CoN cells were grown in black 96-well plates at an initial cell density of 2 × 10^4 cells/cm^2 for 24 h under standard culture conditions. The cells were treated with ST (2.5, 5, 10, 20, and 40 μg/mL) and its esters ST-OA and ST-LA (10, 20, and 40 μg/mL) for 48 h. DNA synthesis was measured by incorporating thymidine analog 5-bromo-2′-deoxyuridine (BrdU) into newly synthesized DNA using the Cell Proliferation ELISA kit according to the protocol recommended by the manufacturer (Roche Diagnostics GmbH, Mannheim, Germany). Briefly, BrdU was added to the treated cells 24 h before the end of the exposure to the ST, ST-OA, and ST-LA (final BrdU concentration of 10 μM). After treatment, BrdU-labeled DNA was denatured (30 min, 20 °C). Then, BrdU was bonded with a peroxidase-conjugated anti-BrdU antibody (90 min, 20 °C) and reacted with the peroxidase substrate. The absorbance measurement was done with a stop solution (1 M H2SO4) at 450 nm with reference wavelength 690 nm using a Tecan M200 Infinite microplate reader."}, "[2]": {"set-up": "method as in PMID 31883991", "conditions": "thermo-oxidative treatment; cited from earlier work"}, "[3]": {"tested_on": "intracellular ROS in CCD 841 CoN cells", "assay": "Intracellular ROS measurement (DCFH-DA, flow cytometry)", "assay_type": "cell-based, human", "conditions": "up to 40 μg/mL, 24 h", "method": "CCD 841 CoN cells were grown in 6-well plates at an initial cell density of 2 × 10^4 cells/cm^2 for 24 h under standard culture conditions. The cell cultures were treated for 24 h with the analyzed compounds at a 40 μg/mL concentration. After treatment, the cells were harvested by trypsinization, washed with Hank's Balanced Salt Solution, and incubated with 10 μM 2′,7′-Dichlorodihydrofluorescein diacetate (DCFH-DA) (Life Technologies, Carlsbad, CA, USA) at 37 °C for 30 min. Intracellular DCF fluorescence (λex/em = 488/530 nm) was examined by flow cytometry (Amnis™ FlowSight™ flow cytometer)."}, "[4]": {"tested_on": "caspase 3/7 activity in CCD 841 CoN cells", "assay": "Caspase 3/7 activity assay (APO-One Homogeneous)", "assay_type": "cell-based, human", "conditions": "40 μg/mL, 24 h", "method": "CCD 841 CoN cells were grown in black 96-well plates at an initial cell density of 2 × 10^4 cells/cm^2 for 24 h under standard culture conditions. The cell cultures were treated for 24 h with ST, ST-OA, and ST-LA at a 40 μg/mL dose. After treatment, caspase-3/7 activity was determined using the APO-One Homogeneous Caspase-3/7 Assay (Promega Corporation, Wisconsin, USA), which is based on the proteolytic cleavage of C-terminal side of aspartate residue in the DEVD peptide substrate by caspase 3/7 into fluorescent rhodamine 110 (R110). Analysis of caspase 3/7 activity was carried out following the manufacturer's instructions. Briefly, the cells after the treatment were incubated at room temperature with Apo-ONE® Caspase-3/7 Reagent—bifunctional cell lysis/caspase activity buffer combined with the pro-fluorescent caspase-3/7 substrate Z-DEVD-R110. After 4-h incubation, fluorescence was measured at an excitation wavelength of 485 nm and an emission wavelength of 530 nm using a Tecan M200 Infinite microplate reader. Data obtained were normalized to cellular protein content, quantified by BCA assay (Pierce® BCA Protein Assay Kit, Thermo Scientific Inc., USA) according to the manufacturer's protocol."}, "CCD 841 CoN cells [5]": {"tested_on": "CCD 841 CoN cells", "set-up": "method as in PMID 31883991", "conditions": "colon mucosa CCD 841 CoN cells, MTT test; cited from earlier work"}, "CCD 841 CoN cells [6]": {"tested_on": "CCD 841 CoN cells", "assay": "Cell cycle analysis by flow cytometry (propidium iodide)", "assay_type": "cell-based, human", "conditions": "40 μg/mL, 24 h", "method": "CCD 841 CoN cells were grown in 6-well plates at an initial cell density of 2 × 10^4 cells/cm^2 for 24 h under standard culture conditions. The cells were treated for 24 h with the analyzed compounds at a concentration of 40 μg/mL; the high dose was applied because of the relatively low cytotoxic potential of ST-OA and ST-LA as determined in cytotoxicity studies. In addition, the cells were exposed to 0.05 μM camptothecin (Sigma-Aldrich) as a positive reference compound known to modulate cell cycle progression.\nAfter treatment, the cells were harvested by trypsinization, washed in PBS, and fixed in 70% ethanol. Then, the cells were stained with 50 μg/mL propidium iodide in the presence of 100 μg/mL RNase (Sigma-Aldrich). The sample preparation method and staining protocol were described previously. The cycle phase distribution was analyzed with an Amnis™ FlowSight™ flow cytometer (Luminex Corporation, TX, USA)."}, "S. typhimurium TA100": {"tested_on": "S. typhimurium TA100", "conditions": "40 μg/mL, without metabolic activation", "method": "(§1) Potential mutagenicity or pro-mutagenicity of non-heated and heated ST, ST-LA, and ST-OA was determined using the bacterial reverse mutation assay (Ames test) with Salmonella enterica subsp. enterica ser. typhimurium tester strains TA98, TA100, and TA102, which were obtained from the Polish Collection of Microorganisms of the Institute of Immunology and Experimental Therapy of the Polish Academy of Sciences in Wroclaw.\n(§2) Mutagenicity experiments were performed in the liquid pre-incubation assay, without and with metabolic activation by supplying Aroclor 1254-induced rat liver microsomal fraction (S9, Sigma-Aldrich) with NADP and cofactors for NADPH-supported oxidation, according to the procedure described by Mortelmans and Zeiger[39]. Briefly, reaction mixtures, consisting of 12-h bacterial culture, non-heated and heated compound (ST, ST-LA, ST-OA) at a concentration of 40 μg, 0.2 M phosphate buffer (pH 7.4), and alternatively S9 activating mixture, were pre-incubated at 37 °C for 20 min. […] The mutagen, 2-aminoanthracene (5 μg) (Sigma-Aldrich), was a positive control in pro-mutagenicity experiments. After pre-incubation, the reaction mixtures were added to the top agar supplemented with traces of histidine and biotin and poured onto the plates covered with minimum glucose agar. The cultures were incubated for 48 h at 37 °C, and the number of revertants (His+) colonies was counted manually.\n(§3) Compounds with MI ≥ 2 can be recognized as potentially mutagenic."}, "S. typhimurium TA98": {"tested_on": "S. typhimurium TA98", "assay": "Bacterial reverse mutation assay (Ames test), strain TA98", "conditions": "40 μg/mL, with microsomal fraction (+ S9)", "method": "as §1, §2, §3"}}}
{"smiles": "CC[C@H](/C=C/[C@@H](C)[C@H]1CC[C@H]2[C@@H]3CC=C4C[C@@H](O)CC[C@]4(C)[C@H]3CC[C@]12C)C(C)C", "note": "[ST, Stigmasterol]", "values": [{"measurement": "decrease in DNA synthesis (BrdU incorporation)", "setting": "CCD 841 CoN cells [1]; 5 μg/mL, P = 0.028", "result": 10, "unit": "%"}, {"measurement": "decrease in DNA synthesis (BrdU incorporation)", "setting": "CCD 841 CoN cells [1]; 40 μg/mL", "result": 61, "unit": "%"}, {"measurement": "first dose that significantly inhibited DNA synthesis", "setting": "CCD 841 CoN cells [1]", "result": 5, "unit": "µg/mL"}, {"measurement": "degradation of ST molecule due to the heating process", "setting": "[2]", "result": "approximately 80%"}, {"measurement": "intracellular ROS production / oxidative reactivity", "setting": "[3]", "result": "did not induce enhanced intracellular ROS production"}, {"measurement": "caspase 3/7 activity", "setting": "[4]", "result": "Boosted caspase 3/7 activity"}, {"measurement": "half-maximal effective concentration (EC50), 50% decrease in cell viability", "setting": "CCD 841 CoN cells [5]", "result": 2.95, "unit": "µg/mL"}, {"measurement": "cell accumulation in G2/M phases", "setting": "CCD 841 CoN cells [6]", "result": "significant cell accumulation in the G2/M phases"}, {"measurement": "Mutagenic index TA100", "setting": "S. typhimurium TA100", "result": 1.9}, {"measurement": "increase in number of revertant colonies TA98", "setting": "S. typhimurium TA98", "result": 1.6, "unit": "fold"}]}
